In US11129899B1, “Methotrexate derivatives and uses thereof” (S.S. Manufacturing Co., Ltd, priority 2021, dated 2021):
pIC50: −log10 of the molar value.

What was measured:
Lipid solubility in oil = type: physicochemical
Protocol: Embodied compound or Methrotrexate in DMSO (3 μg/μl) were dissolved in olive oil, canola oil and sunflower oil(Sigma-Aldrich (St. Louis, Mo., USA)) at 40° C. The suspended were vortexed and centrifuged at 3000 RPM, 10 mins periodically. Oil solvent volume was stepwise increased till completely soluble was observed and the soluble concentration were determined (Table 2). The solutions were left at 24° C. overnight and were centrifuged at 5000 RPM for 20 mins. Ten microliter of embodied compound in oils were added to 100 μl deionized (DI) water. The suspensions were vigorously vortex and left at room temperature.

MCF-7 cells = experiment: cells; type: cell-based; conditions: Homo sapiens, MCF7, 24 h, read-out: IC50 (cytotoxicity)
Protocol: The human breast cancer cell line, MCF-7, was obtained from American Type Cell Collection (ATCC) (Rockville, Mo., U.S.A.). The cells were cultured to 70-80% confluence in Dulbecco's modified Eagle medium (DMEM) (Gibco, Grand Island, N.Y., U.S.A.) with 10% fetal bovine serum (FBS) (Gibco) at 37° C. and 5% CO2. MCF-7 cells were plated overnight in a 96-well plate (4,000 cells per well). […] Next, 10 μl/well of WST-1/ECS solution from the Quick Cell Proliferation Colorimetric Assay Kit (BioVision, Inc., Milptas, Calif., U.S.A.) was added, and the solution was incubated for 2 hours at 37° C. and 5% CO2. Absorbance was measured at 480 nm with the Biochrom Anthos 2010 microplate reader (Biochrom Ltd., Cambourne, Cambridge, UK). The half maximal inhibitory concentrations (IC50) were calculated from log-linear regression from the absorbance optical density (OD).

[1] = biological target: T1, Dihydrofolate reductase (DHFR) (Homo sapiens, UniProt P00374); experiment: Dihydrofolate reductase (DHFR) inhibitor assay (Sigma-Aldrich DHFR assay kit); type: biochemical
T1 construct: purchased Sigma-Aldrich
T1 sequence (P00374 1-187): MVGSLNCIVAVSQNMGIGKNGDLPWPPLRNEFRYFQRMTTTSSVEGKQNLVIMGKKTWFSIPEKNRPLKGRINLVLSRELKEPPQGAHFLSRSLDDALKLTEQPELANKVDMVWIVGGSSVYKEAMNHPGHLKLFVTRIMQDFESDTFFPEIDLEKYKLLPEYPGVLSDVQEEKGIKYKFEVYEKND
Protocol: According to the supplier protocol, the activity of DHFR reductase was measured at […], every 15 seconds for 2.5 minutes, with the Biochrom Anthos 2010 microplate reader (Biochrom Ltd., Cambourne, Cambridge, UK). The enzymatic activity was calculated by the following formula: […]

Structure (SMILES) | Solubility in Oil (40° C.) (Lipid solubility in oil; Canola Oil) | Solubility in Oil (40° C.) (Lipid solubility in oil; Olive Oil) | Solubility in Oil (40° C.) (Lipid solubility in oil; Sunflower Oil) | pIC50 (MCF-7 cells) | Dihydrofolate reductase (DHFR) activity ([1]; inhibitor 5 mM [sic]) | Dihydrofolate reductase (DHFR) activity ([1]; inhibitor 5 mM [sic], % of no inhibitor) | Dihydrofolate reductase (DHFR) activity ([1]; inhibitor 50 mM [sic]) | Dihydrofolate reductase (DHFR) activity ([1]; inhibitor 50 mM [sic], % of no inhibitor) | Dihydrofolate reductase (DHFR) activity ([1]; inhibitor 500 mM [sic]) | Dihydrofolate reductase (DHFR) activity ([1]; inhibitor 500 mM [sic], % of no inhibitor)
CC(C)CCC[C@@H](C)[C@H]1CC[C@H]2[C@@H]3CC=C4C[C@@H](OC(=O)NCCCCNCCCNC(=O)[C@H](CCC(=O)O)NC(=O)c5ccc(N(C)Cc6cnc7nc(N)nc(N)c7n6)cc5)CC[C@]4(C)[C@H]3CC[C@]12C [Embodied compound, (4S)-4-{[3-({4-[({[(1R,3aS,3bS,7S,9aR,9bS,11aR)-9a,11a-dimethyl-1-[(2R)-6-methylheptan-2-yl]-1H,2H,3H,3aH,3bH,4H,6H,7H,8H,9H,9aH,9bH,10H,11H,11aH-cyclopenta[a]phenanthren-7-yl]oxy}carbonyl)amino]butyl}amino)propyl]carbamoyl}-4-[(4-{[(2,4-diaminopteridin-6-yl)methyl](methyl)amino}phenyl)formamido]butanoic acid] | 81.3 mg/100 ml | 48.1 mg/100 ml | 103.6 mg/100 ml | 4.22 | 1.261 Unit/mgP | 8.41% | 0.561 Unit/mgP | 3.74% | 0.561 Unit/mgP | 3.74%
CN(Cc1cnc2nc(N)nc(N)c2n1)c1ccc(C(=O)N[C@@H](CCC(=O)O)C(=O)O)cc1 [MTX, (2S)-2-[(4-{[(2,4-diaminopteridin-6-yl)methyl](methyl)amino}phenyl)formamido]pentanedioic acid, reference compound] | less than 0.1 mg/100 ml | less than 0.1 mg/100 ml | less than 0.1 mg/100 ml | 2.49 | – | – | – | – | – | –
